Activity calls are given as the source filed them. The rule behind the calls is not given here.
How the values were obtained:
Albumin [1] = target: T1, Albumin (Bos taurus, UniProt P02769); assay: Binding affinity to bovine serum albumin assessed as Stem-Volmer quenching constant incubated for 10 mins by fluorescence emission spectrum analysis; type: ADME; conditions: cattle, isolated protein
MCF7 = assay: Cytotoxicity against human MCF7 cells assessed as reduction in cell viability incubated for 48 hrs by MTT assay; type: functional, cell-based; conditions: MCF7, 48 h
[2] = target: DNA topoisomerase 2-alpha (Homo sapiens) (UniProt P11388); assay: Inhibition of recombinant human topoisomerase 2alpha using supercoiled pUC19 plasmid DNA as substrate at 10 uM incubated for 45 mins by ethidium bromide dye based agarose gel electrophoresis method
Calf thymus DNA [3] = assay: Binding affinity to calf thymus DNA assessed as fold change in hypochromicity at 10 uM by fluorescence emission spectrum analysis relative to control; type: nucleic-acid assay; conditions: Bos taurus
Albumin [4] = target: T1, Albumin; assay: Binding affinity to bovine serum albumin assessed as hypochromicity at 5 to 40 uM by fluorescence emission spectrum analysis method relative to control; type: ADME; conditions: cattle, isolated protein
Albumin [5] = target: T1, Albumin; assay: Binding affinity to bovine serum albumin assessed as binding constant incubated for 10 mins by UV-Vis absorption spectroscopic method; type: ADME; conditions: cattle, isolated protein
T47D = assay: Cytotoxicity against human T47D cells assessed as reduction in cell viability incubated for 48 hrs by MTT assay; type: functional, cell-based
Albumin [6] = target: T1, Albumin; assay: Binding affinity to bovine serum albumin assessed as hypsochromic shift at 5 to 40 uM by fluorescence emission spectrum analysis method; type: ADME; conditions: cattle, isolated protein
[7] = Selectivity index, ratio of CC50 for mouse RAW264.7 cells to ratio of IC50 for human MCF7 cells; type: toxicity; conditions: RAW264.7 cells and MCF7 cells, read-out: Ratio CC50/IC50
Calf thymus DNA [8] = assay: Binding affinity to calf thymus DNA assessed as binding constant incubated for 10 mins by UV-Vis absorption spectroscopic method; type: nucleic-acid assay; conditions: Bos taurus
[9] = Cytotoxicity against mouse RAW264.7 cells assessed as reduction in cell viability incubated for 48 hrs by MTT assay; type: cell-based
Salmon testes DNA = assay: Binding affinity to salmon sperm […] DNA assessed as DNA intercalation by measuring increase in viscosity at 12 to 60 uM by viscometric method; type: nucleic-acid assay; conditions: Salmonidae
[10] = Selectivity index, ratio of CC50 for mouse RAW264.7 cells to ratio of IC50 for human T47D cells; type: toxicity; conditions: RAW264.7 cells and T47D cells, read-out: Ratio CC50/IC50
Calf thymus DNA [11] = assay: Binding affinity to calf thymus DNA assessed as DNA spectral changes at 30 uM incubated for 10 mins by circular dichroism method; type: nucleic-acid assay; conditions: Bos taurus
Calf thymus DNA [12] = assay: Binding affinity to calf thymus DNA assessed as hyperchromicity at 30 uM incubated for 10 mins by UV-Vis absorption spectroscopic method relative to control; type: nucleic-acid assay; conditions: Bos taurus
Albumin [13] = target: T1, Albumin; assay: Binding affinity to bovine serum albumin assessed as hyperchromicity at 5 to 40 uM incubated for 10 mins by UV-Vis absorption spectroscopic method relative to control; type: ADME; conditions: cattle, isolated protein
Calf thymus DNA [14] = assay: Binding affinity to calf thymus DNA assessed as bathochromic shift at 30 uM incubated for 10 mins by UV-Vis absorption spectroscopic method; type: nucleic-acid assay; conditions: Bos taurus
Albumin [15] = target: T1, Albumin; assay: Binding affinity to bovine serum albumin assessed as hypsochromic shift at 5 to 40 uM incubated for 10 mins by UV-Vis absorption spectroscopic method relative to control; type: ADME; conditions: cattle, isolated protein
Calf thymus DNA [16] = assay: Binding affinity to calf thymus DNA assessed as hypsochromic shift at 10 uM by fluorescence emission spectrum analysis; type: nucleic-acid assay; conditions: Bos taurus
Calf thymus DNA [17] = assay: Binding affinity to calf thymus DNA assessed as DNA spectral changes by measuring decrease in positive band at 274 nm at 30 uM incubated for 10 mins by circular dichroism method; type: nucleic-acid assay; conditions: Bos taurus
Calf thymus DNA [18] = assay: Binding affinity to calf thymus DNA assessed as DNA spectral changes by measuring increase in negative band at 245 nm at 30 uM incubated for 10 mins by circular dichroism method; type: nucleic-acid assay; conditions: Bos taurus
Calf thymus DNA [19] = assay: Binding affinity to calf thymus DNA assessed as hypochromicity at 30 uM incubated for 10 mins by UV-Vis absorption spectroscopic method relative to control; type: nucleic-acid assay; conditions: Bos taurus
Calf thymus DNA [20] = assay: Binding affinity to calf thymus DNA assessed as hypsochromic shift at 30 uM incubated for 10 mins by UV-Vis absorption spectroscopic method; type: nucleic-acid assay; conditions: Bos taurus
Calf thymus DNA [21] = assay: Binding affinity to calf thymus DNA assessed as fold change in hyperchromicity at 10 uM by fluorescence emission spectrum analysis relative to control; type: nucleic-acid assay; conditions: Bos taurus

T1 sequence (P02769 whole entry): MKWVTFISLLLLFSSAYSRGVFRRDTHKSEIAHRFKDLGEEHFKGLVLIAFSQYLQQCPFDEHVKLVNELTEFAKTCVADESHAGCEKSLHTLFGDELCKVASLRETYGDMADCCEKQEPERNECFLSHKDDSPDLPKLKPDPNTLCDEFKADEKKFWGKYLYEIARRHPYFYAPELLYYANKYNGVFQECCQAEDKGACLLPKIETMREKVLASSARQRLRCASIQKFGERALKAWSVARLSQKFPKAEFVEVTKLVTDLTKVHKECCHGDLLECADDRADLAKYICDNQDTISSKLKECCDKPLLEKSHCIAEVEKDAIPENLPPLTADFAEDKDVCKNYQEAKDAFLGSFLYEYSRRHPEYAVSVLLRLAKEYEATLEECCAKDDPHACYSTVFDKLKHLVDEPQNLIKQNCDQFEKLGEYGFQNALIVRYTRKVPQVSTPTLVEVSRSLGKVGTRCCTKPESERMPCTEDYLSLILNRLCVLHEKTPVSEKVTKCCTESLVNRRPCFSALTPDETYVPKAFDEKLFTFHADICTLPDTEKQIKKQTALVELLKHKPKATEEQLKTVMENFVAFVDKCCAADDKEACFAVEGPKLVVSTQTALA
DNA topoisomerase 2-alpha (Homo sapiens), sequence (P11388 whole entry): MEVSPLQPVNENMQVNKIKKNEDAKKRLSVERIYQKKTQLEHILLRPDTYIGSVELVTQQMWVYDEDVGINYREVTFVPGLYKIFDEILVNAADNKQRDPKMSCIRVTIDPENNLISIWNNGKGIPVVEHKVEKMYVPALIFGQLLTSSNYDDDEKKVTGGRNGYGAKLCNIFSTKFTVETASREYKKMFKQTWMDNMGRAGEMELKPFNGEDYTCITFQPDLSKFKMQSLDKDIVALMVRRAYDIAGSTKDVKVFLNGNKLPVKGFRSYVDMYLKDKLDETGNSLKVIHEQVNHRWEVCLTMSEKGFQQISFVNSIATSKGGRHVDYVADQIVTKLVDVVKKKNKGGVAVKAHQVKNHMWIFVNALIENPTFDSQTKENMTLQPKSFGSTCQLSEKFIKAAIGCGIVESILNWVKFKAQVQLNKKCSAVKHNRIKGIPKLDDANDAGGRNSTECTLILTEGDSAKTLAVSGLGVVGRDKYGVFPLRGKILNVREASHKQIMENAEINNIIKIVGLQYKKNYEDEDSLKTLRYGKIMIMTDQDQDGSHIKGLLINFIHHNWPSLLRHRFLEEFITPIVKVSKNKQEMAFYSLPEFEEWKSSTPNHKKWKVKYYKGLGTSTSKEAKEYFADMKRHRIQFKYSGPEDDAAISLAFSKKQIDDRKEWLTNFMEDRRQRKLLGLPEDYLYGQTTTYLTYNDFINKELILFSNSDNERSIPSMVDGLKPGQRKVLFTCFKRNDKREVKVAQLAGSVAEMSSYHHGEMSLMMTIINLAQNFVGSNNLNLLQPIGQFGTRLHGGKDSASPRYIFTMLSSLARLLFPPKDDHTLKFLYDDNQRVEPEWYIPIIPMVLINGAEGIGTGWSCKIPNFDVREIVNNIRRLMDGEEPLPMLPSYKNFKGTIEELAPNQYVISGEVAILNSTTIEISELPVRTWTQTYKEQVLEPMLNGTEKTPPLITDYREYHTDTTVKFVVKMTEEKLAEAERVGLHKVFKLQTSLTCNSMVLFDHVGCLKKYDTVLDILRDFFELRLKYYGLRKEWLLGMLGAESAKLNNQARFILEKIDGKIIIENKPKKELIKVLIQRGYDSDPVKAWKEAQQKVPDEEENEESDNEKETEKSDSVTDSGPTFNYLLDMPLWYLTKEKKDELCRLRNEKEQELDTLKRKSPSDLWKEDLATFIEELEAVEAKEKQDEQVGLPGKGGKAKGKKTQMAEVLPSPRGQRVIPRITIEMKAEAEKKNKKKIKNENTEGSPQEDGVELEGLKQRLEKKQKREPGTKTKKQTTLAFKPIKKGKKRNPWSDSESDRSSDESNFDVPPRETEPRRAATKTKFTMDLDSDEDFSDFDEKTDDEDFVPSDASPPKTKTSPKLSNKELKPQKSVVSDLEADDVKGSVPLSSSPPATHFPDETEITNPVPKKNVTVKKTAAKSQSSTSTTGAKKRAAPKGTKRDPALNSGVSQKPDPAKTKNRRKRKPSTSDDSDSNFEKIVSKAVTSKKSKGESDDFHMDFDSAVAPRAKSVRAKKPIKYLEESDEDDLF

| KSV (Albumin [1]) [×10⁴ /M] | inhibition [2] | fold change (FC) (Calf thymus DNA [3]) | Activity (Albumin [4]) [%] | Kb (Albumin [5]) | Activity (Albumin [6]) | Kb (Calf thymus DNA [8]) | Activity (Salmon testes DNA) | Activity (Calf thymus DNA [11]) | Activity (Calf thymus DNA [12]) [%] | Activity (Albumin [13]) [%] | Activity (Calf thymus DNA [16]) | Activity (Calf thymus DNA [19]) [%] | Structure (SMILES) | IC50 (MCF7) [µM] | IC50 (T47D) [µM] | selectivity ratio [7] | CC50 at 48 h [9] [µM] | selectivity ratio [10] | other results |
| --- | --- | --- | --- | --- | --- | --- | --- | --- | --- | --- | --- | --- | --- | --- | --- | --- | --- | --- | --- |
| 6.36 | Active | 1.67 | 226.14 | 1.13 ×10⁵ /M | Active | 2.54 ×10⁵ /M | Active | Active | 13.9 | 53.34 |  |  | S=C(N/N=C\c1ccnc2ccccc12)Nc1cccc2ccccc12 | 0.88 | 1.21 | 25.6 | 22.6 | 18.6 |  |
| 10.39 | Active | 6.64 | 371.21 | 1.44 ×10⁵ /M | Active | 3.98 ×10⁴ /M | Active | Active | 2.88 | 52.42 |  |  | C=CCNC(=S)N/N=C\c1ccnc2ccccc12 | 0.97 | 1.23 | 108 | 105 | 85.5 | Activity (Calf thymus DNA [14]): Active |
|  |  |  |  |  |  |  |  |  |  |  |  |  | CNC(=O)c1cccc2c(Nc3ccc(NS(C)(=O)=O)cc3OC)c3cccc(C)c3nc12 [ASULACRINE] |  |  |  | 31.2 |  |  |
| 16.05 | inactive | 4.65 | 601.57 | 1.43 ×10⁵ /M | Active | 1.62 ×10⁶ /M | Active |  | 51.4 | 69.01 | Active |  | CCc1ccc(NC(=S)N/N=C\c2ccnc3ccccc23)cc1 | 0.82 | 1.28 | 43.6 | 35.7 | 27.9 | Activity (Albumin [15]): Active; Activity (Calf thymus DNA [17]): Active; Activity (Calf thymus DNA [14]): Active; Activity (Calf thymus DNA [18]): Active |
| 4.09 | inactive | 5.53 | 157.14 | 1.08 ×10⁵ /M | Active | 2.42 ×10⁴ /M | Active | Active |  | 62.54 |  | 27.4 | S=C(NCCc1ccccc1)N/N=C\c1ccnc2ccccc12 | 1.09 | 1.12 | 30.2 | 33 | 29.4 |  |
| 11.2 | Active | 6.06 | 508.17 | 1.17 ×10⁵ /M | Active | 7.44 ×10⁴ /M | Active | Active |  | 56.43 |  | 10.8 | S=C(N/N=C\c1ccnc2ccccc12)Nc1ccc(Br)cc1 | 0.99 | 1.48 | 54.1 | 53.5 | 36.2 | Activity (Calf thymus DNA [20]): Active |
| 11.19 | Active | 3.72 | 33.65 | 7.29 ×10⁴ /M | Active | 3.5 ×10⁴ /M | Active | Active |  | 52.75 | Active | 52.3 | S=C(N/N=C\c1ccnc2ccccc12)Nc1ccccc1 | 1.07 | 1.38 | 110 | 118 | 85.5 |  |
| 5.9 | Active | 3.44 | 237.42 | 8.4 ×10⁴ /M | Active | 2.37 ×10⁵ /M | Active | Active | 15.9 | 38.74 |  |  | Fc1ccc(NC(=S)N/N=C\c2ccnc3ccccc23)cc1 | 1.1 | 1.07 | 41.7 | 45.9 | 42.9 |  |
| 3.99 | inactive |  | 493.41 | 8.03 ×10⁴ /M | Active | 1.96 ×10⁵ /M | Active | Active |  | 52.95 |  | 20.3 | S=C(N/N=C\c1ccnc2ccccc12)Nc1cccnc1 | 0.97 | 1.1 | 94.4 | 91.6 | 83.3 | fold change (FC) (Calf thymus DNA [21]): 0.89 |
| 3.82 | inactive | 7.69 | 132.77 | 1.03 ×10⁵ /M | Active | 2.51 ×10⁴ /M | Active | Active |  | 43.48 |  | 12.9 | O=[N+]([O-])c1ccc(NC(=S)N/N=C\c2ccnc3ccccc23)cc1 | 0.81 | 1.33 | 102 | 82.5 | 62 | Activity (Calf thymus DNA [20]): Active |
| 6.07 | Active | 1.88 | 68.97 | 1.13 ×10⁵ /M | Active | 6.29 ×10⁴ /M | Active | Active |  | 53.34 | Active | 8.51 | S=C(N/N=C\c1ccnc2ccccc12)Nc1ccc(Cl)cc1 | 1.07 | 1.27 | 59.3 | 63.5 | 50 | Activity (Calf thymus DNA [20]): Active |
|  | Active |  |  |  |  |  | Active |  |  |  |  |  | COc1cc(NS(C)(=O)=O)ccc1Nc1c2ccccc2nc2ccccc12 [AMSACRINE] | 0.91 | 0.94 | 105 | 95.5 | 102 |  |
| 8.85 | inactive | 2.77 | 287.44 | 1.39 ×10⁵ /M | Active | 3.56 ×10⁵ /M | Active | Active | 11.8 | 58.04 | Active |  | Cc1ccc(NC(=S)N/N=C\c2ccnc3ccccc23)cc1 | 0.98 | 1.32 | 51.5 | 50.5 | 38.3 | Activity (Calf thymus DNA [14]): Active |
| 9.24 | Active | 11.6 | 320.04 | 5.44 ×10⁴ /M | Active | 1.33 ×10⁵ /M | Active | Active | 59.6 | 42.61 | Active |  | COc1ccc(NC(=S)N/N=C\c2ccnc3ccccc23)cc1 | 0.99 | 1.36 | 102 | 101 | 74.6 | Activity (Calf thymus DNA [20]): Active |

From ChEMBL document CHEMBL4406827, “Novel 4-quinoline-thiosemicarbazone derivatives: Synthesis, antiproliferative activity, in vitro and in silico biomacromolecule interaction studies and topoisomerase inhibition” (Eur J Med Chem, 2019)
